Results reported in the NIST ThermoML archive (doi:10.1021/je300775u).

Test: xn = mol fraction of the nth substance listed
Settings: 101 kPa, Liquid; for speed of sound: Pulse-echo method; for mass density: Vibrating tube method

ClCBr [bromochloromethane] + ClC(Cl)(Cl)Br
Settings	mass density, 293.15 K [kg/m3]	mass density, 298.15 K [kg/m3]	mass density, 303.15 K [kg/m3]	mass density, 308.15 K [kg/m3]	mass density, 313.15 K [kg/m3]	speed of sound, 293.15 K [m/s]	speed of sound, 298.15 K [m/s]	speed of sound, 303.15 K [m/s]	speed of sound, 308.15 K [m/s]	speed of sound, 313.15 K [m/s]
x2 = 0	1933.23	1921.71	1910.15	1898.51	1886.82	1001.2	986.1	971	955.9	940.8
x2 = 0.052	1938.2	1926.72	1915.19	1903.6	1891.94	992.8	977.9	962.9	947.9	933
x2 = 0.103	1942.79	1931.34	1919.85	1908.3	1896.67	985.2	970.4	955.5	940.7	925.9
x2 = 0.1538	1947.34	1935.88	1924.46	1912.93	1901.44	978.4	963.6	948.9	934.2	919.1
x2 = 0.2031	1951.55	1940.16	1928.76	1917.27	1905.74	972.2	957.5	942.8	928.1	913.6
x2 = 0.2551	1956.05	1944.71	1933.31	1921.86	1910.36	966.1	951.6	937	922.6	908.1
x2 = 0.305	1960.19	1948.82	1937.49	1926.18	1914.72	960.7	946.3	931.8	917.3	903
x2 = 0.3522	1963.98	1952.66	1941.28	1929.99	1918.58	956.4	942.1	927.8	913.5	898.9
x2 = 0.4063	1968.54	1957.3	1946.02	1934.68	1923.3	950.8	936.7	922.4	908.2	894
x2 = 0.4553	1972.41	1961.2	1949.96	1938.65	1927.29	946.7	932.6	918.4	904.2	890.3
x2 = 0.5058	1976.4	1965.21	1954	1942.75	1931.42	942.7	928.6	914.5	900.5	886.5
x2 = 0.5665	1981.04	1969.89	1958.74	1947.52	1936.26	938.2	924.2	910.3	896.4	882.6
x2 = 0.6027	1983.79	1972.67	1961.52	1950.31	1939.1	935.8	921.9	908	894.1	880.3
x2 = 0.6567	1987.81	1976.74	1965.63	1954.45	1943.26	932.3	918.5	904.7	891	877.2
x2 = 0.7046	1991.31	1980.21	1969.15	1958.12	1946.95	929.6	915.8	902	888.3	874.7
x2 = 0.7543	1994.91	1983.88	1972.83	1961.75	1950.61	926.9	913.2	899.5	885.9	872.3
x2 = 0.8025	1998.2	1987.2	1976.2	1965.14	1954.05	924.5	910.8	897.2	883.7	870.2
x2 = 0.8516	2001.94	1990.96	1979.93	1968.92	1957.85	922.3	908.7	895.1	881.6	868.3
x2 = 0.8996	2005.35	1994.38	1983.39	1972.42	1961.38	920.3	906.8	893.3	879.9	866.5
x2 = 0.9228	2007.14	1996.17	1985.15	1974.22	1963.19	919.8	906.3	892.9	879.4	865.9
